Experimental data taken from PubChem BioAssay (NCI).
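1) Cells in 96-well plates. 2) Compound, 48 h, 5 concentrations. 3) Linear interpolation between surrounding doses. 4) Unreached endpoint = highest concentration. GI50 marks 50% less growth. Definition used: TGI = concentration required for complete inhibition of growth.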

How the values were obtained:
Assay in all cases: NCI anticancer screen, dose series, 48 h
UO-31 renal = system: UO-31 renal
T-47D breast = system: T-47D breast
NCI/ADR-RES ovarian = system: NCI/ADR-RES ovarian
HOP-62 NSCLC = system: HOP-62 NSCLC
OVCAR-5 ovarian = system: OVCAR-5 ovarian
HCC-2998 colon = system: HCC-2998 colon
COLO 205 colon = system: COLO 205 colon
MALME-3M melanoma = system: MALME-3M melanoma
KM12 colon = system: KM12 colon
TK-10 renal = system: TK-10 renal
PC-3 prostate = system: PC-3 prostate
UACC-257 melanoma = system: UACC-257 melanoma
HCT-15 colon = system: HCT-15 colon
IGROV1 ovarian = system: IGROV1 ovarian
CAKI-1 renal = system: CAKI-1 renal
MOLT-4 leukemia = system: MOLT-4 leukemia
M14 melanoma = system: M14 melanoma
SF-268 CNS = system: SF-268 CNS
SK-MEL-5 melanoma = system: SK-MEL-5 melanoma
MDA-MB-231 breast = system: MDA-MB-231 breast
RXF 393 renal = system: RXF 393 renal
HCT-116 colon = system: HCT-116 colon
OVCAR-3 ovarian = system: OVCAR-3 ovarian
LOX IMVI melanoma = system: LOX IMVI melanoma
SK-MEL-28 melanoma = system: SK-MEL-28 melanoma
MDA-MB-435 = system: MDA-MB-435
SK-OV-3 ovarian = system: SK-OV-3 ovarian
SR leukemia = system: SR leukemia
SNB-19 CNS = system: SNB-19 CNS
786-0 renal = system: 786-0 renal
K-562 leukemia = system: K-562 leukemia
SF-295 CNS = system: SF-295 CNS
SK-MEL-2 melanoma = system: SK-MEL-2 melanoma
BT-549 breast = system: BT-549 breast
HT29 colon = system: HT29 colon
ACHN renal = system: ACHN renal
SF-539 CNS = system: SF-539 CNS
OVCAR-4 ovarian = system: OVCAR-4 ovarian
EKVX NSCLC = system: EKVX NSCLC
NCI-H23 lung = system: NCI-H23 lung
OVCAR-8 ovarian = system: OVCAR-8 ovarian
A549 NSCLC = system: A549 NSCLC
NCI-H226 lung = system: NCI-H226 lung
SW-620 colon = system: SW-620 colon
DU-145 prostate = system: DU-145 prostate
SNB-75 CNS = system: SNB-75 CNS
U251 CNS = system: U251 CNS
NCI-H460 lung = system: NCI-H460 lung
NCI-H522 lung = system: NCI-H522 lung
CCRF-CEM leukemia = system: CCRF-CEM leukemia
UACC-62 melanoma = system: UACC-62 melanoma
SN12C renal = system: SN12C renal
RPMI-8226 leukemia = system: RPMI-8226 leukemia

## CC12CCC([C@H](Nc3cc(C(F)(F)F)cc(C(F)(F)F)c3)C1=O)C2(C)C (stereo not given in full)
UO-31 renal
  TGI: > 100 µM
T-47D breast
  TGI: > 100 µM
NCI/ADR-RES ovarian
  TGI: > 100 µM
HOP-62 NSCLC
  TGI: > 100 µM
OVCAR-5 ovarian
  TGI: > 100 µM
HCC-2998 colon
  TGI: > 100 µM
COLO 205 colon
  TGI: > 100 µM
MALME-3M melanoma
  TGI: > 100 µM
KM12 colon
  TGI: > 100 µM
TK-10 renal
  TGI: > 100 µM
PC-3 prostate
  TGI: > 100 µM
UACC-257 melanoma
  TGI: > 100 µM
HCT-15 colon
  TGI: > 100 µM
IGROV1 ovarian
  TGI: > 100 µM
CAKI-1 renal
  TGI: > 100 µM
MOLT-4 leukemia
  TGI: > 100 µM
M14 melanoma
  TGI: > 100 µM
SF-268 CNS
  TGI: > 100 µM
SK-MEL-5 melanoma
  TGI: > 100 µM
MDA-MB-231 breast
  TGI: > 100 µM
RXF 393 renal
  TGI: 28 µM
HCT-116 colon
  TGI: > 100 µM
OVCAR-3 ovarian
  TGI: > 100 µM
LOX IMVI melanoma
  TGI: > 100 µM
SK-MEL-28 melanoma
  TGI: > 100 µM
MDA-MB-435
  TGI: > 100 µM
SK-OV-3 ovarian
  TGI: > 100 µM
SR leukemia
  TGI: > 100 µM
SNB-19 CNS
  TGI: > 100 µM
786-0 renal
  TGI: > 100 µM
K-562 leukemia
  TGI: > 100 µM
SF-295 CNS
  TGI: > 100 µM
SK-MEL-2 melanoma
  TGI: > 100 µM
BT-549 breast
  TGI: > 100 µM
HT29 colon
  TGI: > 100 µM
ACHN renal
  TGI: > 100 µM
SF-539 CNS
  TGI: > 100 µM
OVCAR-4 ovarian
  TGI: > 100 µM
EKVX NSCLC
  TGI: > 100 µM
NCI-H23 lung
  TGI: > 100 µM
OVCAR-8 ovarian
  TGI: > 100 µM
A549 NSCLC
  TGI: > 100 µM
NCI-H226 lung
  TGI: > 100 µM
SW-620 colon
  TGI: > 100 µM
DU-145 prostate
  TGI: > 100 µM

## Cc1nn2c(/C=N/N=C(N)N)c(-c3ccc(Cl)c([N+](=O)[O-])c3)nc2s1
UO-31 renal
  GI50: 20.9 µM
  TGI: 41.1 µM
SNB-75 CNS
  GI50: 1.36 µM
  TGI: 2.94 µM
T-47D breast
  GI50: 0.481 µM
NCI/ADR-RES ovarian
  GI50: 3.61 µM
  TGI: 15 µM
HOP-62 NSCLC
  GI50: 0.262 µM
  TGI: 0.529 µM
OVCAR-5 ovarian
  GI50: 1.42 µM
  TGI: 3.15 µM
HCC-2998 colon
  GI50: 1.42 µM
  TGI: 2.91 µM
COLO 205 colon
  GI50: 0.457 µM
  TGI: 61.7 µM
MALME-3M melanoma
  GI50: 2.44 µM
  TGI: 4.14 µM
TK-10 renal
  GI50: 2.06 µM
  TGI: 3.56 µM
PC-3 prostate
  GI50: 1.14 µM
  TGI: 2.83 µM
U251 CNS
  GI50: 0.285 µM
  TGI: 0.597 µM
UACC-257 melanoma
  GI50: 6.14 µM
  TGI: 11.7 µM
HCT-15 colon
  GI50: 1.43 µM
  TGI: 3.72 µM
IGROV1 ovarian
  GI50: 6.2 µM
  TGI: 22.1 µM
CAKI-1 renal
  GI50: 1.47 µM
  TGI: 2.85 µM
MOLT-4 leukemia
  GI50: 2.88 µM
  TGI: 5.61 µM
M14 melanoma
  GI50: 1.72 µM
  TGI: 3.3 µM
SF-268 CNS
  GI50: 1.22 µM
NCI-H460 lung
  GI50: 1.18 µM
NCI-H522 lung
  GI50: 7.04 µM
  TGI: 46.7 µM
MDA-MB-231 breast
  GI50: 2.03 µM
  TGI: 3.66 µM
RXF 393 renal
  GI50: 3.4 µM
CCRF-CEM leukemia
  GI50: 0.368 µM
  TGI: 0.751 µM
UACC-62 melanoma
  GI50: 2.06 µM
  TGI: 3.58 µM
HCT-116 colon
  GI50: 0.192 µM
  TGI: 0.374 µM
OVCAR-3 ovarian
  GI50: 0.488 µM
  TGI: 1.52 µM
MDA-MB-435
  GI50: 0.204 µM
  TGI: 0.363 µM
SK-OV-3 ovarian
  GI50: 2.85 µM
  TGI: 6.75 µM
SR leukemia
  GI50: 2.53 µM
  TGI: 4.9 µM
SNB-19 CNS
  GI50: 0.543 µM
  TGI: > 100 µM
786-0 renal
  GI50: 0.249 µM
  TGI: 0.442 µM
K-562 leukemia
  GI50: 2.98 µM
  TGI: 9.63 µM
SF-295 CNS
  GI50: 0.615 µM
  TGI: 1.94 µM
SN12C renal
  GI50: 0.763 µM
  TGI: 1.58 µM
SK-MEL-2 melanoma
  GI50: 2.53 µM
  TGI: 6.46 µM
BT-549 breast
  GI50: 21.6 µM
  TGI: 48.3 µM
HT29 colon
  GI50: 0.236 µM
ACHN renal
  GI50: 0.966 µM
  TGI: 2.58 µM
SF-539 CNS
  GI50: 2.07 µM
  TGI: 3.63 µM
EKVX NSCLC
  GI50: 25.3 µM
  TGI: 69.6 µM
A549 NSCLC
  GI50: 4.96 µM
  TGI: 17.5 µM
RPMI-8226 leukemia
  GI50: 0.791 µM
  TGI: 1.76 µM
SW-620 colon
  GI50: 0.444 µM
  TGI: 1.72 µM
DU-145 prostate
  GI50: 2.32 µM
  TGI: 4.98 µM
